Here are results for 1 cell line from the supplement of paper PMC10307832.

Holding throughout (assay): relative viability (nuclei count vs DMSO), 5 days (fraction); higher = more cells survive
Compound in the assay “XMD8-85 + Bortezomib”: CN1CCN(CC1)C2=CC(=C(C=C2)NC3=NC=C4C(=N3)N(C5=CC=CC=C5C(=O)N4C)C)OC [XMD8-85] + CC(C)C[C@H](NC(=O)[C@H](Cc1ccccc1)NC(=O)c1cnccn1)B(O)O [Bortezomib] (partner 0.002 µM)
In short, it runs like this:
(§1)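 One day after seeding in 1536-well plates, lung cancer cell lines were dosed by pin tool. Dosing was either single-drug or a fixed anchor-drug dose plus five library-drug doses (not always all listed) in √10 steps. After 5 days, nuclei were stained in one fix-and-stain step and counted on 4× images, and relative viability is the nuclei count of treated wells over that of vehicle wells, given as the median of duplicate plates.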

Compound in the assay “XMD8-85 + Crizotinib”: CN1CCN(CC1)C2=CC(=C(C=C2)NC3=NC=C4C(=N3)N(C5=CC=CC=C5C(=O)N4C)C)OC [XMD8-85] + C[C@@H](Oc1cc(-c2cnn(C3CCNCC3)c2)cnc1N)c1c(Cl)ccc(F)c1Cl [Crizotinib] (partner 1 µM)
In short, it runs like this: as §1

Compound in the assay “4EGI-1 + Bortezomib”: O=C(O)C(Cc1ccccc1[N+](=O)[O-])=NNc1nc(-c2ccc(Cl)c(Cl)c2)cs1 (mixture of isomers) [4EGI-1] + CC(C)C[C@H](NC(=O)[C@H](Cc1ccccc1)NC(=O)c1cnccn1)B(O)O [Bortezomib] (partner 0.002 µM)
In short, it runs like this:
as §1

Compound in the assay “4EGI-1 + AZD7762”: O=C(O)C(Cc1ccccc1[N+](=O)[O-])=NNc1nc(-c2ccc(Cl)c(Cl)c2)cs1 (mixture of isomers) [4EGI-1] + NC(=O)Nc1cc(-c2cccc(F)c2)sc1C(=O)N[C@H]1CCCNC1 [AZD7762] (partner 0.2 µM)
In outline: as §1

In the case of HARA, the relative viability in the assay with XMD8-85 + Bortezomib (first compound 0.08 µM) came to 1.08; with XMD8-85 + Bortezomib (first compound 0.253 µM) it was 1.01; with XMD8-85 + Bortezomib (first compound 0.8 µM), 1.26; with XMD8-85 + Bortezomib (first compound 2.53 µM) it was 1.16; with XMD8-85 + Bortezomib (first compound 8 µM) it was 0.866; in the assay with XMD8-85 + Crizotinib (first compound 0.08 µM), 1.21. For the same cell line, the relative viability with XMD8-85 + Crizotinib (first compound 0.253 µM) stood at 0.885; with XMD8-85 + Crizotinib (first compound 0.8 µM) it was 1.3; with XMD8-85 + Crizotinib (first compound 2.53 µM), 0.94; with XMD8-85 + Crizotinib (first compound 8 µM), 0.417; with 4EGI-1 + Bortezomib (first compound 0.5 µM), 1.16; in the assay with 4EGI-1 + Bortezomib (first compound 1.581 µM), 1.12. Moreover, the relative viability with 4EGI-1 + Bortezomib (first compound 5 µM) amounted to 1.26; in the assay with 4EGI-1 + Bortezomib (first compound 15.81 µM), 1.08; with 4EGI-1 + Bortezomib (first compound 50 µM), 0.154; in the assay with 4EGI-1 + AZD7762 (first compound 0.5 µM), 0.397; in the assay with 4EGI-1 + AZD7762 (first compound 1.581 µM), 0.48; with 4EGI-1 + AZD7762 (first compound 5 µM) it was 0.241. Also, the figures for the relative viability in the assay with 4EGI-1 + AZD7762 (first compound 15.81 µM) and with 4EGI-1 + AZD7762 (first compound 50 µM) were 0.195 and 0.161, respectively.
